Like-named read-outs stand apart in the source and are kept apart here.
Tests used:
JAK2 = JAK2 (Homo sapiens (Human), UniProt O60674); assay: LanthaScreen JAK biochemical assay (JAK2); conditions: for Ki: read-out: JAK 2 (pKi) (converted)
JAK1 = JAK1 (Homo sapiens (Human), UniProt P23458); assay: LanthaScreen JAK biochemical assay (JAK1)
[1] = test system: IL-4 induced STAT6 phosphorylation in THP-1 human monocytic cells; assay: Cellular JAK potency assay, THP-1
[2] = IL-4 induced STAT6 phosphorylation, THP-1 cells
[3] = THP-1 cells, IL-4 induced STAT6 phosphorylation
[4] = read-out: JAK 1 (pKi) (converted)
[5] = Homo sapiens, THP-1, read-out: THP-1 IL4 pIC50 (converted)

JAK2, sequence (O60674 whole entry): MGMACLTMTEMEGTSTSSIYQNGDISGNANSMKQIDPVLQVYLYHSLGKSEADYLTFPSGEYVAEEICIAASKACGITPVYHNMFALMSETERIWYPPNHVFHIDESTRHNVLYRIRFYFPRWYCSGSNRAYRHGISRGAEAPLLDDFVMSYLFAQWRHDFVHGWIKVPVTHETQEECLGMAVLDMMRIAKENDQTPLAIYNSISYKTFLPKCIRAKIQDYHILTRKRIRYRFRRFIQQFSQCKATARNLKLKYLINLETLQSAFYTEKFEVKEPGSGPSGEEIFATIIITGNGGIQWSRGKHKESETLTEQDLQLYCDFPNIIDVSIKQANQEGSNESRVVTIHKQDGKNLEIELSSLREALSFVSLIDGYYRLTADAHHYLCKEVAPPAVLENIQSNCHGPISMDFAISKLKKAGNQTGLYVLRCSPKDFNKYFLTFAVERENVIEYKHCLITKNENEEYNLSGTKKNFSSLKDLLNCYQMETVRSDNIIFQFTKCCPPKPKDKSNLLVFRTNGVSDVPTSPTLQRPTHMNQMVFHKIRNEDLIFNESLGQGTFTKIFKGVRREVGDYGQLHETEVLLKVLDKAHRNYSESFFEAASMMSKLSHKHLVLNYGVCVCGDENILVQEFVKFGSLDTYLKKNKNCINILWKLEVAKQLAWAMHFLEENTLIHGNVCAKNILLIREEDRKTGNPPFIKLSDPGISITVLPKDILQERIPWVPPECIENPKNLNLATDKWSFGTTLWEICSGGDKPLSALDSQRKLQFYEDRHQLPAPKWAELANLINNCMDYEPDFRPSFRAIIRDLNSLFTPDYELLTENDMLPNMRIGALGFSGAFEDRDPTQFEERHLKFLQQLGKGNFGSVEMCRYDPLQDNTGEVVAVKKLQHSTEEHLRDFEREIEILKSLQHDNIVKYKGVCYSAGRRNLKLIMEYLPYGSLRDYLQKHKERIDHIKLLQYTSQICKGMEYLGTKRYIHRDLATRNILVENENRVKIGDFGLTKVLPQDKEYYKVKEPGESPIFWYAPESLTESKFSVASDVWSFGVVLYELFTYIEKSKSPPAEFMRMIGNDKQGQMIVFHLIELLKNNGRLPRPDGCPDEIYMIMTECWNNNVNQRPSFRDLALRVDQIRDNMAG
JAK1, sequence (P23458 whole entry): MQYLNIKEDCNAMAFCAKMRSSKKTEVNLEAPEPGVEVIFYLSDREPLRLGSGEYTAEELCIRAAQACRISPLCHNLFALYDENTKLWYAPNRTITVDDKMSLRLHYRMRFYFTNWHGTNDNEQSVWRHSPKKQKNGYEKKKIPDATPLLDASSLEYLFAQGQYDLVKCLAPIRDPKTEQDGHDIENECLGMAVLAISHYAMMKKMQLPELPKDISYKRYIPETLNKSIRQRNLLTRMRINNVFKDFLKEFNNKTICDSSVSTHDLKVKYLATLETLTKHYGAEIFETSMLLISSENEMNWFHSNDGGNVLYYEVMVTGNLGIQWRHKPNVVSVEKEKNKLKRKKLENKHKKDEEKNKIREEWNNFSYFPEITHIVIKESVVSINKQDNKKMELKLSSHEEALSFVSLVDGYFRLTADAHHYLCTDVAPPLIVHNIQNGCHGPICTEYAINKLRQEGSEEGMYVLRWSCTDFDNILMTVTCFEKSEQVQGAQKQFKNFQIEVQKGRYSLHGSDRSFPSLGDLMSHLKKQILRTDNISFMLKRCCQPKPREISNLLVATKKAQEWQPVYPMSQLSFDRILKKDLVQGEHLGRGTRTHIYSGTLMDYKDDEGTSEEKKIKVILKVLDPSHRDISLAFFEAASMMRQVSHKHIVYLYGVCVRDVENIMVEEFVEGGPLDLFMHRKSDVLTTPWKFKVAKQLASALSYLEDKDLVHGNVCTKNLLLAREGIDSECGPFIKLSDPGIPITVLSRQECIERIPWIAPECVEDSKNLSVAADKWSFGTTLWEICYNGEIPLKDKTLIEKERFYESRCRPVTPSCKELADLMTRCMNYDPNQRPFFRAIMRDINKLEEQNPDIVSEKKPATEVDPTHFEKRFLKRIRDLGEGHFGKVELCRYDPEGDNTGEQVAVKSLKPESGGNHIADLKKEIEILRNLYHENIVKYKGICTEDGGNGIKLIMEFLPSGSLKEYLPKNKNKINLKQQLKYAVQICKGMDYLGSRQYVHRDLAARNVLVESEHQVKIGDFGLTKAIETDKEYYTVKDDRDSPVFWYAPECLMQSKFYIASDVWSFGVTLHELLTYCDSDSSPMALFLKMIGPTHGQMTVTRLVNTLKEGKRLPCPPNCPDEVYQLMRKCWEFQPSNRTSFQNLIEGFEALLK

Structure (SMILES)	JAK 2 (pKi) (JAK2)	JAK 1 (pKi) (JAK1)	THP-1 IL4 pIC50 [1, 2]	further results
CNC(=O)CN1[C@@H]2CC[C@H]1C[C@H](Nc1nc(Nc3cc(C)[nH]n3)cc3ncccc13)C2 [Example 1-7]	B (B represents a pKi value between 9 and 10 (Ki between 1 nM and 0.1 nM))	B (B represents a pKi value between 9 and 10 (Ki between 1 nM and 0.1 nM))	C (C represents a pEC50 value<6.7 (EC50>200 nM))	
Cc1cnc2cc(Nc3cc(C)[nH]n3)nc(N[C@@H]3C[C@H]4CCC[C@@H](C3)N4C(=O)OCC(C)C)c2c1 [Example 6-7]	B (B represents a pKi value between 9 and 10 (Ki between 1 nM and 0.1 nM))			THP-1 IL4 pIC50 [1, 3]: B (B represents a pEC50 value between 6.7 and 7.5 (EC50 between 200 nM and 32 nM))
Cc1cc(Nc2cc3nc(CS(C)(=O)=O)ccc3c(N[C@@H]3C[C@H]4CC[C@@H](C3)N4CCCF)n2)n[nH]1 [Example 5-42]	B (B represents a pKi value between 9 and 10 (Ki between 1 nM and 0.1 nM))	B (B represents a pKi value between 9 and 10 (Ki between 1 nM and 0.1 nM))	C (C represents a pEC50 value<6.7 (EC50>200 nM))	
COC(=O)c1cnc2cc(Nc3cc(C)[nH]n3)nc(N[C@@H]3C[C@H]4CC[C@@H](C3)N4CCC(F)(F)F)c2c1 [Example 6-45]	B (B represents a pKi value between 9 and 10 (Ki between 1 nM and 0.1 nM))	B (B represents a pKi value between 9 and 10 (Ki between 1 nM and 0.1 nM))		THP-1 IL4 pIC50 [1, 3]: B (B represents a pEC50 value between 6.7 and 7.5 (EC50 between 200 nM and 32 nM))
Cc1cc(Nc2cc3ncccc3c(N[C@@H]3C[C@H]4CCC[C@@H](C3)N4S(=O)(=O)Cc3ccccc3)n2)n[nH]1 [Example 4-24]	B (B represents a pKi value between 9 and 10 (Ki between 1 nM and 0.1 nM))	B (B represents a pKi value between 9 and 10 (Ki between 1 nM and 0.1 nM))	B (B represents a pEC50 value between 6.7 and 7.5 (EC50 between 200 nM and 32 nM))	
CCC(=O)N1[C@@H]2CC[C@H]1C[C@H](Nc1nc(Nc3cc(C)[nH]n3)cc3ncc(C(=O)OC)cc13)C2 [Example 6-36]				Ki (JAK2): 0.1 to 1 nM; Ki (JAK1; [4]): 0.1 to 1 nM; IC50 [1, 5]: 31.6 to 200 nM
Cc1cc(Nc2cc3nc(CN4CCN(C)CC4)ccc3c(N[C@@H]3C[C@H]4CC[C@@H](C3)N4S(=O)(=O)c3cncc(F)c3)n2)n[nH]1 [Example 5-40]				Ki (JAK2): 0.1 to 1 nM; Ki (JAK1; [4]): 0.1 to 1 nM; IC50 [1, 5]: 31.6 to 200 nM
Cc1cc(Nc2cc3ncccc3c(N[C@@H]3C[C@H]4CCC[C@@H](C3)N4Cc3ccncc3)n2)n[nH]1 [Example 1-48]	A (A represents a pKi value≥10 (Ki≤0.1 nM))	A (A represents a pKi value≥10 (Ki≤0.1 nM))	B (B represents a pEC50 value between 6.7 and 7.5 (EC50 between 200 nM and 32 nM))	
Cc1cc(Nc2cc3ncc(S(C)(=O)=O)cc3c(N[C@@H]3C[C@H]4CC[C@@H](C3)N4C(=O)C(F)F)n2)n[nH]1 [Example 6-52]				Ki (JAK2): 0.1 to 1 nM; Ki (JAK1): 0.1 to 1 nM; IC50 [1, 5]: > 200 nM
Cc1cc(Nc2cc3ncccc3c(N[C@@H]3C[C@H]4CCC[C@@H](C3)N4C3CCCOC3=O)n2)n[nH]1 (stereo partly shown) [Example 1-53]	B (B represents a pKi value between 9 and 10 (Ki between 1 nM and 0.1 nM))	B (B represents a pKi value between 9 and 10 (Ki between 1 nM and 0.1 nM))	B (B represents a pEC50 value between 6.7 and 7.5 (EC50 between 200 nM and 32 nM))	
COC(=O)CN1[C@@H]2CCC[C@H]1C[C@H](Nc1nc(Nc3cc(C)[nH]n3)cc3ncccc13)C2 [Example 1-32]	A (A represents a pKi value≥10 (Ki≤0.1 nM))		C (C represents a pEC50 value<6.7 (EC50>200 nM))	
Cc1cc(Nc2cc3ncccc3c(N[C@@H]3C[C@H]4CCC[C@@H](C3)N4C[C@H]3CCC(=O)O3)n2)n[nH]1 [Example 1-57]	B (B represents a pKi value between 9 and 10 (Ki between 1 nM and 0.1 nM))	B (B represents a pKi value between 9 and 10 (Ki between 1 nM and 0.1 nM))	B (B represents a pEC50 value between 6.7 and 7.5 (EC50 between 200 nM and 32 nM))	
CCOC(=O)N1[C@@H]2CC[C@H]1C[C@H](Nc1nc(Nc3cc(C)[nH]n3)cc3ncccc13)C2 [Example 3-1]				Ki (JAK2): 0.1 to 1 nM; Ki (JAK1; [4]): 0.1 to 1 nM; IC50 [1, 5]: < 31.6 nM
Cc1cc(Nc2cc3ncccc3c(N[C@@H]3C[C@H]4CCC[C@@H](C3)N4CC3COC(=O)O3)n2)n[nH]1 (stereo partly shown) [Example 1-58]	A (A represents a pKi value≥10 (Ki≤0.1 nM))		B (B represents a pEC50 value between 6.7 and 7.5 (EC50 between 200 nM and 32 nM))	
Cc1cc(Nc2cc3nc(CN4CCOCC4)ccc3c(N[C@@H]3C[C@H]4CCC[C@@H](C3)N4CC(F)(F)F)n2)n[nH]1 [Example 5-29]	A (A represents a pKi value≥10 (Ki≤0.1 nM))		B (B represents a pEC50 value between 6.7 and 7.5 (EC50 between 200 nM and 32 nM))	
COC(=O)c1cnc2cc(Nc3cc(C)[nH]n3)nc(N[C@@H]3C[C@H]4CC[C@@H](C3)N4C(=O)C(F)F)c2c1 [Example 6-37]				Ki (JAK2): 0.1 to 1 nM; Ki (JAK1; [4]): 0.1 to 1 nM
Cc1cc(Nc2cc3ncccc3c(N[C@@H]3C[C@H]4CC[C@@H](C3)N4C3CCOC3=O)n2)n[nH]1 (stereo partly shown) [Example 1-26]				Ki (JAK2): 0.1 to 1 nM; Ki (JAK1; [4]): 0.1 to 1 nM
COC(=O)C1(C(=O)N2[C@@H]3CCC[C@H]2C[C@H](Nc2nc(Nc4cc(C)[nH]n4)cc4ncccc24)C3)CC1 [Example 2-21]	B (B represents a pKi value between 9 and 10 (Ki between 1 nM and 0.1 nM))		B (B represents a pEC50 value between 6.7 and 7.5 (EC50 between 200 nM and 32 nM))	
Cc1cc(Nc2cc3nc(CN4CCOCC4)ccc3c(N[C@@H]3C[C@H]4CC[C@@H](C3)N4CCC#N)n2)n[nH]1 [Example 5-18]	A (A represents a pKi value≥10 (Ki≤0.1 nM))		B (B represents a pEC50 value between 6.7 and 7.5 (EC50 between 200 nM and 32 nM))	
Cc1cc(Nc2cc3ncccc3c(N[C@@H]3C[C@H]4CCC[C@@H](C3)N4C(=O)C3(C)CCCC3)n2)n[nH]1 [Example 2-23]	B (B represents a pKi value between 9 and 10 (Ki between 1 nM and 0.1 nM))		B (B represents a pEC50 value between 6.7 and 7.5 (EC50 between 200 nM and 32 nM))	
Cc1cc(Nc2cc3ncccc3c(N[C@@H]3C[C@H]4CC[C@@H](C3)N4C3CCOC3=O)n2)n[nH]1 (stereo partly shown) [Example 1-27]	B (B represents a pKi value between 9 and 10 (Ki between 1 nM and 0.1 nM))	B (B represents a pKi value between 9 and 10 (Ki between 1 nM and 0.1 nM))		
Cc1cc(Nc2cc3ncccc3c(N[C@@H]3C[C@H]4CC[C@@H](C3)N4Cc3ccc(O)cc3)n2)n[nH]1 [Example 1-18]				Ki (JAK1; [4]): 0.1 to 1 nM; IC50 [1, 5]: > 200 nM
Cc1cc(Nc2nc(N[C@@H]3C[C@H]4CCC[C@@H](C3)N4C(=O)CN(C)C)c3cccnc3c2F)n[nH]1 [Example 8-15]		B (B represents a pKi value between 9 and 10 (Ki between 1 nM and 0.1 nM))		THP-1 IL4 pIC50 [1, 3]: C (C represents a pEC50 value<6.7 (EC50>200 nM))
Cc1cc(Nc2cc3ncccc3c(N[C@@H]3C[C@H]4CC[C@@H](C3)N4S(=O)(=O)C3CN(CCC#N)C3)n2)n[nH]1 [Example 4-11]				Ki (JAK1; [4]): 0.1 to 1 nM; IC50 [1, 5]: > 200 nM
COCCCN1[C@@H]2CCC[C@H]1C[C@H](Nc1nc(Nc3cc(C)[nH]n3)cc3ncccc13)C2 [Example 1-46]		B (B represents a pKi value between 9 and 10 (Ki between 1 nM and 0.1 nM))	B (B represents a pEC50 value between 6.7 and 7.5 (EC50 between 200 nM and 32 nM))	
